# Data from ChEMBL document CHEMBL4052829, “Identification of a Novel Hybridization from Isosorbide 5-Mononitrate and Bardoxolone Methyl with Dual Activities of Pulmonary Vasodilation and Vascular Remodeling Inhibition on Pulmonary Arterial Hypertension Rats” (J Med Chem, 2018).
# The source made the active and inactive calls. The calls are words filed in the database; no cut-off is given here.
# How the values were obtained:
# Rattus norvegicus [1] = test: Pulmonary vasodilatory effect in MCT-induced Sprague-Dawley rat pulmonary arterial hypertension model assessed as weight ratio of right ventricle to left ventricle and septum at 0.78 ug/kg, inhaled daily for 28 days co-administered with CDDO-Me (reference value: 0.4796 +/- 0.030); assay type: functional
# Rattus norvegicus [2] = test: Pulmonary vasodilatory effect in MCT-induced Sprague-Dawley rat pulmonary arterial hypertension model assessed as weight ratio of right ventricle to left ventricle and septum at 0.78 ug/kg, inhaled daily for 28 days (reference value: 0.4796 +/- 0.030); assay type: functional
# Rattus norvegicus [3] = test: Pulmonary vasodilatory effect in MCT-induced Sprague-Dawley rat pulmonary arterial hypertension model assessed as mean pulmonary artery pressure at 0.78 ug/kg, inhaled daily for 28 days co-administered with CDDO-Me by polygraph method (reference value: 30.63 +/- 1.16 mmHg); assay type: functional
# Rattus norvegicus [4] = test: Pulmonary vasodilatory effect in MCT-induced Sprague-Dawley rat pulmonary arterial hypertension model assessed as right ventricular systolic pressure at 0.78 ug/kg, inhaled daily for 28 days co-administered with CDDO-Me by polygraph method (reference value: 56.09 +/- 3.24 mmHg); assay type: functional
# Rattus norvegicus [5] = test: Pulmonary vasodilatory effect in MCT-induced Sprague-Dawley rat pulmonary arterial hypertension model assessed as right ventricular systolic pressure at 0.78 ug/kg, inhaled daily for 28 days by polygraph method (reference value: 56.09 +/- 3.24 mmHg); assay type: functional
# Rattus norvegicus [6] = test: Pulmonary vasodilatory effect in MCT-induced Sprague-Dawley rat pulmonary arterial hypertension model assessed as mean pulmonary artery pressure at 0.78 ug/kg, inhaled daily for 28 days by polygraph method (reference value: 30.63 +/- 1.16 mmHg); assay type: functional
# [7] = Drug uptake in Sprague-Dawley rat lung at 1 mg/ml administered in trachea after 60 mins by LC-MS/MS analysis; assay type: ADME, tissue-based; conditions: inhaled or intranasal, read-out: Drug uptake
# [8] = molecular target: T1, Nuclear factor erythroid 2-related factor 2 (Rattus norvegicus) (UniProt O54968); test: Induction of Nrf2 translocation to nucleus of rat pulmonary artery endothelial cells at 1 uM after 24 hrs by immunofluorescence assay
# T1 sequence (whole entry): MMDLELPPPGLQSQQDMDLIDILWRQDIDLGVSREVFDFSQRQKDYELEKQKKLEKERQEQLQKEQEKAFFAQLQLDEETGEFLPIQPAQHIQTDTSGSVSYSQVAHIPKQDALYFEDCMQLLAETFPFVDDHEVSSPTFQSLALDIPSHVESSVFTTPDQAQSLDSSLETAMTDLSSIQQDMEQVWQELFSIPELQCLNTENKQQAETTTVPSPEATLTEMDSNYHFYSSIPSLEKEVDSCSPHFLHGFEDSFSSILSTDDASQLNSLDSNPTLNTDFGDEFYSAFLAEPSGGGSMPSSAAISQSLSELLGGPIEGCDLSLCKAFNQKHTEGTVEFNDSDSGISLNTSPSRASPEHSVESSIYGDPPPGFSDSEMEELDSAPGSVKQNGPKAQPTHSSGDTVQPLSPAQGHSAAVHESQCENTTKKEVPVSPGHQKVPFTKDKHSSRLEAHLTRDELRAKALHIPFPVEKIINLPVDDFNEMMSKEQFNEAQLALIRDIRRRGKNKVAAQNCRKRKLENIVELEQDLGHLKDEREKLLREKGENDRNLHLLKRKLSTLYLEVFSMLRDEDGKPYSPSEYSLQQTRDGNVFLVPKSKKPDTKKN
# Rattus norvegicus [9] = test: Inhibition of oxidative response in lung of MCT-induced Sprague-Dawley rat pulmonary arterial hypertension model assessed as decrease in ratio of NOX4 positive cells and NOX4 expression at 3 ug/kg, inhaled daily for 28 days by Western blot method; assay type: functional
# Rattus norvegicus [10] = test: Inhibition of vascular remodeling in MCT-induced Sprague-Dawley rat pulmonary arterial hypertension model assessed as decrease in MCT-induced increment of PCNA positive cells in lung at 3 ug/kg, inhaled daily for 28 days by immunohistochemical method; assay type: functional
# Rattus norvegicus [11] = test: Inhibition of cardiac fibrosis in MCT-induced Sprague-Dawley rat pulmonary arterial hypertension model at 3 ug/kg, inhaled daily for 28 days by picro-sirius red staining-based assay; assay type: functional
# Plasma [12] = test: Drug metabolism in Sprague-Dawley rat plasma assessed as formation of CDDO-Me at 1 mg/ml administered in trachea after 15 to 720 mins by LC-MS/MS analysis; assay type: ADME, cell-free; conditions: inhaled_or_intranasal
# Lung [13] = test: Drug metabolism in Sprague-Dawley rat lung assessed as formation of CDDO-Me at 1 mg/ml administered in trachea after 90 mins by LC-MS/MS analysis; assay type: ADME, tissue-based; conditions: in vivo, inhaled_or_intranasal, 1.5 h
# Rattus norvegicus [14] = test: Inhibition of vascular remodeling in MCT-induced Sprague-Dawley rat pulmonary arterial hypertension model assessed as downregulation of MCT-induced up-expression of alpha-SMA at 3 ug/kg, inhaled daily for 28 days by Western blot method; assay type: functional
# Rattus norvegicus [15] = test: Pulmonary vasodilatory effect in MCT-induced Sprague-Dawley rat pulmonary arterial hypertension model assessed as mean pulmonary artery pressure at 3 ug/kg, inhaled daily for 28 days by polygraph method (reference value: 30.63 +/- 1.16 mmHg); assay type: functional
# Rattus norvegicus [16] = test: Inhibition of vascular remodeling in MCT-induced Sprague-Dawley rat pulmonary arterial hypertension model assessed as decrease in MCT-induced macrophage infiltration in perivascular tissue at 3 ug/kg, inhaled daily for 28 days by immunohistochemical method; assay type: functional
# Rattus norvegicus [17] = test: Inhibition of vascular remodeling in MCT-induced Sprague-Dawley rat pulmonary arterial hypertension model assessed as decrease in MCT-induced perivascular fibrosis at 3 ug/kg, inhaled daily for 28 days by masson's trichrome staining-based assay; assay type: functional
# Rattus norvegicus [18] = test: Inhibition of vascular remodeling in MCT-induced Sprague-Dawley rat pulmonary arterial hypertension model assessed as reduction of MCT-induced pulmonary vascular muscularization by measuring downregulation of alpha-SMA levels at 3 ug/kg, inhaled daily for 28 days by immunohistochemical method; assay type: functional
# Rattus norvegicus [19] = test: Pulmonary vasodilatory effect in MCT-induced Sprague-Dawley rat pulmonary arterial hypertension model assessed as right ventricular systolic pressure at 3 ug/kg, inhaled daily for 28 days by polygraph method (reference value: 56.09 +/- 3.24 mmHg); assay type: functional
# Rattus norvegicus [20] = test: Inhibition of oxidative response in lung of MCT-induced Sprague-Dawley rat pulmonary arterial hypertension model assessed as decrease in ratio of NOX4 positive cells and NOX4 expression at 3 ug/kg, inhaled daily for 28 days by immunohistochemical method; assay type: functional
# Rattus norvegicus [21] = test: Pulmonary vasodilatory effect in MCT-induced Sprague-Dawley rat pulmonary arterial hypertension model assessed as reversal of MCT-induced nitric oxide reduction in plasma at 3 ug/kg, inhaled daily for 28 days by Griess assay; assay type: functional
# Rattus norvegicus [22] = test: Inhibition of cardiomyocyte hypertrophy in MCT-induced Sprague-Dawley rat pulmonary arterial hypertension model at 3 ug/kg, inhaled daily for 28 days by hematoxylin and eosin staining-based assay; assay type: functional
# Rattus norvegicus [23] = test: Inhibition of vascular remodeling in MCT-induced Sprague-Dawley rat pulmonary arterial hypertension model assessed as decrease in MCT-induced collagen-1 expression in lung at 3 ug/kg, inhaled daily for 28 days by Western blot method; assay type: functional
# Rattus norvegicus [24] = test: Pulmonary vasodilatory effect in MCT-induced Sprague-Dawley rat pulmonary arterial hypertension model assessed as weight ratio of right ventricle to left ventricle and septum at 3 ug/kg, inhaled daily for 28 days (reference value: 0.4796 +/- 0.030); assay type: functional
# Rattus norvegicus [25] = test: Inhibition of vascular remodeling in MCT-induced Sprague-Dawley rat pulmonary arterial hypertension model assessed as reduction of MCT-induced medial thickness of pulmonary artery at 3 ug/kg, inhaled daily for 28 days by hematoxylin and eosin staining-based assay; assay type: functional
# Rattus norvegicus [26] = test: Inhibition of vascular remodeling in MCT-induced Sprague-Dawley rat pulmonary arterial hypertension model assessed as decrease in MCT-induced TGF-beta expression in lung at 3 ug/kg, inhaled daily for 28 days by Western blot method; assay type: functional
# Rattus norvegicus [27] = test: Pulmonary vasodilatory effect in MCT-induced Sprague-Dawley rat pulmonary arterial hypertension model assessed as reversal of MCT-induced ET-1 elevation in plasma at 3 ug/kg, inhaled daily for 28 days by ELISA; assay type: functional
# Lung [28] = test: Drug metabolism in Sprague-Dawley rat lung assessed as formation of CDDO-Me at 1 mg/ml administered in trachea after 12 hrs by LC-MS/MS analysis; assay type: ADME, tissue-based; conditions: in vivo, inhaled_or_intranasal
# Plasma [29] = test: Drug level in Sprague-Dawley rat plasma treated with CDDO-NO at 1 mg/ml administered in trachea after 15 to 720 mins by LC-MS/MS analysis; assay type: ADME, cell-free; conditions: inhaled_or_intranasal
# Rattus norvegicus [30] = test: Pulmonary vasodilatory effect in MCT-induced Sprague-Dawley rat pulmonary arterial hypertension model assessed as mean pulmonary artery pressure at 2.1 ug/kg, inhaled daily for 28 days by polygraph method (reference value: 30.63 +/- 1.16 mmHg); assay type: functional
# Rattus norvegicus [31] = test: Pulmonary vasodilatory effect in MCT-induced Sprague-Dawley rat pulmonary arterial hypertension model assessed as right ventricular systolic pressure at 2.1 ug/kg, inhaled daily for 28 days co-administered with ISMN by polygraph method (reference value: 56.09 +/- 3.24 mmHg); assay type: functional
# Rattus norvegicus [32] = test: Pulmonary vasodilatory effect in MCT-induced Sprague-Dawley rat pulmonary arterial hypertension model assessed as weight ratio of right ventricle to left ventricle and septum at 2.1 ug/kg, inhaled daily for 28 days co-administered with ISMN (reference value: 0.4796 +/- 0.030); assay type: functional
# Rattus norvegicus [33] = test: Pulmonary vasodilatory effect in MCT-induced Sprague-Dawley rat pulmonary arterial hypertension model assessed as right ventricular systolic pressure at 2.1 ug/kg, inhaled daily for 28 days by polygraph method (reference value: 56.09 +/- 3.24 mmHg); assay type: functional
# Rattus norvegicus [34] = test: Pulmonary vasodilatory effect in MCT-induced Sprague-Dawley rat pulmonary arterial hypertension model assessed as mean pulmonary artery pressure at 2.1 ug/kg, inhaled daily for 28 days co-administered with ISMN by polygraph method (reference value: 30.63 +/- 1.16 mmHg); assay type: functional
# [35] = Drug uptake in Sprague-Dawley rat lung at 1 mg/ml administered in trachea after 360 mins by LC-MS/MS analysis; assay type: ADME, tissue-based; conditions: inhaled or intranasal, read-out: Drug uptake
# Lung [36] = test: (§1) Drug uptake in Sprague-Dawley rat lung at 1 mg/ml administered in trachea after 180 mins by LC-MS/MS analysis; assay type: ADME; conditions: in vivo, inhaled_or_intranasal, 3 h, BLD = below limit of detection
# [37] = as §1; assay type: ADME; conditions: Sprague-Dawley, lung, inhaled or intranasal, 1 mg/ml, read-out: Drug uptake
# Lung [38] = test: Drug level in Sprague-Dawley rat lung treated with CDDO-NO at 1 mg/ml administered in trachea after 90 to 720 mins by LC-MS/MS analysis; assay type: ADME, tissue-based; conditions: in vivo, inhaled_or_intranasal
# Rattus norvegicus [39] = test: Pulmonary vasodilatory effect in MCT-induced Sprague-Dawley rat pulmonary arterial hypertension model assessed as weight ratio of right ventricle to left ventricle and septum at 2.1 ug/kg, inhaled daily for 28 days (reference value: 0.4796 +/- 0.030); assay type: functional
structure (smiles),measurement,setting,value
O=[N+]([O-])O[C@@H]1CO[C@H]2[C@@H]1OC[C@H]2O,Ratio,Rattus norvegicus [1],0.4898
same,Ratio,Rattus norvegicus [2],0.4844
same,Activity,Rattus norvegicus [3],27.3 mmHg
same,Activity,Rattus norvegicus [4],60.12 mmHg
same,Activity,Rattus norvegicus [5],60.76 mmHg
same,Activity,Rattus norvegicus [6],25.11 mmHg
COC(=O)[C@]12CCC(C)(C)C[C@H]1[C@H]1C(=O)C=C3[C@@]4(C)C(O[C@@H]5CO[C@H]6[C@@H]5OC[C@H]6O[N+](=O)[O-])C(C#N)=C(OC(C)=O)C(C)(C)[C@@H]4CC[C@@]3(C)[C@]1(C)CC2 (stereo not given in full),concentration at 1 h,[7],243 ng/mL
same,Activity,[8],Active
same,inhibition,Rattus norvegicus [9],Active
same,inhibition,Rattus norvegicus [10],Active
same,inhibition,Rattus norvegicus [11],Active
same,Drug metabolism,Plasma [12],Metabolite_Detected
same,Drug metabolism,Lung [13],78.5 ng/mL
same,inhibition,Rattus norvegicus [14],Active
same,Activity,Rattus norvegicus [15],20.72 mmHg
same,inhibition,Rattus norvegicus [16],Active
same,inhibition,Rattus norvegicus [17],Active
same,inhibition,Rattus norvegicus [18],Active
same,Activity,Rattus norvegicus [19],44.75 mmHg
same,inhibition,Rattus norvegicus [20],Active
same,Activity,Rattus norvegicus [21],Active
same,inhibition,Rattus norvegicus [22],Active
same,inhibition,Rattus norvegicus [23],Active
same,Ratio,Rattus norvegicus [24],0.3656
same,inhibition,Rattus norvegicus [25],Active
same,inhibition,Rattus norvegicus [26],Active
same,Activity,Rattus norvegicus [27],Active
same,Drug metabolism,Lung [28],15.9 ng/mL
COC(=O)[C@]12CCC(C)(C)C[C@H]1[C@H]1C(=O)C=C3[C@@]4(C)C=C(C#N)C(=O)C(C)(C)[C@@H]4CC[C@@]3(C)[C@]1(C)CC2 [BARDOXOLONE METHYL],concentration at 1 h,[7],180 to 444 ng/mL
same,Drug metabolism,Plasma [29],Metabolite_Detected
same,Activity,Rattus norvegicus [30],26.29 mmHg
same,Activity,Rattus norvegicus [31],60.12 mmHg
same,Ratio,Rattus norvegicus [32],0.4898
same,Activity,Rattus norvegicus [33],61.24 mmHg
same,Activity,Rattus norvegicus [34],27.3 mmHg
same,concentration at 6 h,[35],3.4 ng/mL
same,Drug uptake,Lung [36],Bld
same,concentration at 3 h,[37],44.8 ng/mL
same,Drug metabolism,Lung [38],Metabolite_Detected
same,Ratio,Rattus norvegicus [39],0.5123
